The text below walks through data of patent US9421492B2, “Aminopyridine derivatives for removal of hydrogen sulfide from a gas mixture” (Dow Global Technologies LLC, priority 2011, dated 2016).

A short description of this series: Solubility in unbuffered water. To be noted: unbuffered de-ionized water, 25° C., average of three experiments.
From the text: The experiment is repeated three times and the average solubilities are reported as weight percent (wt %) in Table 1.
Turning to “1-hydroxyethyl-4-pyridynyl-pyperazine [HEPP]”, the “Solubility, wt %” value is on record as 60 wt %.
To `Cc1cc(N(C)C)ccn1` [DMAPP, 2-methyl-4-(dimethylamino)pyridine] belongs 5 wt %; to `Cc1cc(N(C)C)cc(C)n1` [DMAPL, 2,6-dimethyl-4-(dimethylamino)pyridine], 3 wt %.
To `CN(C)c1ccncc1` [DMAP, 4-dimethylaminopyridine] belongs 8 wt %.
